In paper PMC6831561, “Pharmacological and Behavioral Effects of the Synthetic Cannabinoid AKB48 in Rats” (Frontiers in Neuroscience, 2019):

Tests used:
[1] = system: rats; experiment: Cardiorespiratory analysis (heart rate, breath rate, SpO2); format: in vivo
Text: During the experiment, the rat was allowed to freely move in a cage (40 × 40 × 30 cm) with no access to food and water while being monitored by the sensor collar through MouseOx Plus (STARR Life Sciences® Corp., Oakmont, PA, United States) software. In the first hour of acclimation, a fake collar similar to the real one used in the test but with no sensor was used to minimize the potential stress during the experiment. Then, the real collar (with sensor) was replaced, and baseline parameters were monitored for 60 min.

[2] = system: extracellular DA levels; experiment: In vivo brain microdialysis of DA (NAc shell, NAc core, mPFC); parameters: species or system rats
Text: Male Sprague-Dawley rats were anaesthetized with isoflurane gas, and maintained under anaesthesia using a breathing tube under a scavenging system while placed in a stereotaxic apparatus and implanted with vertical dialysis probes (1.5 or 3 mm dialyzing portion for NAc or mPFC, respectively) in the NAc shell (A + 2.2, L + 1.0 from bregma, V-7.8 from dura) or core (A + 1.4; L + 1.6 from bregma; V-7.6 from dura) or in the mPFC (A + 3.7, L + 0.8 from bregma, V-5.0 from dura), according to the rat brain atlas ([Paxinos and Watson, 1998]).
On the day following surgery, probes were perfused with Ringer’s solution (147 mM NaCl, 4 mM KCl, 2.2 mM CaCl2) at a constant rate of 1 μL/min. Dialyzate samples (10 μL) were injected into an HPLC equipped with a reverse-phase column (C8 3.5 μm, Waters, United States) and a coulometric detector (ESA, Coulochem II) to quantify DA. The first electrode of the detector was set at + 130 mV (oxidation), and the second at −175 mV (reduction). The composition of the mobile phase was: 50 mM NaH2PO4, 0.1 mM Na2-EDTA, 0.5 mM n-octyl sodium sulfate, 15% (v/v) methanol, pH 5.5. The sensitivity of the assay for DA was 5 fmol/sample. At the end of the experiment, animals were sacrificed and their brains removed and stored in formalin (8%) for histological examination to verify the correct placement of the microdialysis probe.

[3] = system: rats; experiment: Open field test and gross behavior test; format: in vivo
Description: An open field, used to measure locomotor activity, consisted of a wooden chamber (45 cm high) with a circular base (75 cm diameter). The floor was divided into 12 sections of similar area by two concentric circles and radial segments. The apparatus was placed in a sound-proof room, illuminated by a white 80 W lamp placed 200 cm over the center of the arena. Rat behavior in the test sessions was videotaped, analyzed, and scored. The following parameters were measured: time spent in the central or peripheral area, locomotor activity, and number of rearing reactions. Each of the behavioral parameters was scored manually by a tally counting method. The behavioral parameters scored were head twitches, wet dog shakes, grooming, licking, number of defecations, and tail rigidity. In the open field test, 21 male Sprague-Dawley rats were used and divided into three groups (n = 7 per group) and received different doses of AKB48 according to the CPP protocol. After treatment, the animals were leaved undisturbed for 10 min in the arena and then observed for 30 min.

[4] = AKB48 highest dose (3 mg/kg), after 60 min from injection
[5] = AKB48 0.1 and 0.5 mg/kg i.p., both doses

**Q.** Which results are given for `CCCCCn1nc(C(=O)NC23CC4CC(CC(C4)C2)C3)c2ccccc21` [AKB48, N-(1-adamantyl)-1-pentyl-1H-indazole-3-carboxamide]?
**A.** duration of the heart rate decrease ([1]; AKB48 3.0 mg/kg i.p.): about 90 min; time at which the heart rate effect disappeared ([1]; AKB48 3.0 mg/kg i.p.): 180 min; reduction of heart rate ([1]; AKB48 3.0 mg/kg i.p., after 30 min from injection): ~36%; time at which the SpO2 effect disappeared ([1]; AKB48 highest dose (3 mg/kg)): 120 min; time at which the breath rate effect disappeared ([1]; AKB48 highest dose (3 mg/kg)): 120 min; reduction of SpO2 saturation [1, 4]: ~10%; reduction of breath rate [1, 4]: ~30%; DA levels in the NAc shell ([2]; AKB48 0.25 mg/kg i.p.): increased; max increase of DA in the NAc shell ([2]; AKB48 0.25 mg/kg ip, at 20 and 40 min): about 40%; DA levels in the mPFC ([2]; AKB48 0.125 and 0.25 mg/kg i.p.): No significant effects; DA levels in the NAc shell ([2]; AKB48 lower or higher doses (0.125 and 0.5 mg/kg i.p.)): ineffective; distance traveled in the central area ([3]; AKB48 0.5 mg/kg): reduced; time spent in the central area ([3]; AKB48 0.5 mg/kg): reduced; total distance traveled ([3]; AKB48 0.5 mg/kg): reduced; amount of defecation ([3]; AKB48 0.1 and 0.5 mg/kg i.p.): did not affect; grooming ([3]; AKB48 0.1 and 0.5 mg/kg i.p.): did not affect; head shaking ([3]; AKB48 0.1 and 0.5 mg/kg i.p.): did not affect; rearing ([3]; AKB48 0.1 and 0.5 mg/kg i.p.): no effect; spontaneous locomotor activity ([3]; AKB48 0.1 and 0.5 mg/kg i.p.): reduced; wet dog shaking ([3]; AKB48 0.1 and 0.5 mg/kg i.p.): did not affect; licking [3, 5]: decrease; tail rigidity [3, 5]: significant increase
